Data from patent publication US20100093706A1, “MULTIMEDIATOR TRANSPORTER INHIBITORS FOR USE IN TREATMENT OF CENTRAL NERVOUS SYSTEM DISORDERS” (priority 2006, published 2010).
“Also recorded” adds a separate entry of the source. Like-named read-outs stand apart in the source and are kept apart here.

How the values were obtained:
[1] = tested on: rats; assay: forced swim test (behavioral despair assay) in rats; type: in vivo; details: rat
Procedure: In vivo efficacy of several illustrative inhibitors of the instant invention, (1), (3), and (4), were measured using standard forced swim test model using rat. The objective of this study was to assess the antidepressant effects of test compounds in the behavioral despair assay in rats using a modification of a method described by Porsolt R. D. et al. in Behavioural despair in rats: a new model sensitive to antidepressant treatment, Eur. J. Pharmacol., 47: 379-391, 1978; Porsolt et al., Nature 266: 730-732, 1977; and Porsolt et al., in Psychopharmacology, Olivier, Mos, and Slangen (eds) Birkhäuser Verlag, Basel, pp. 137-159, 1991. Briefly, when mice (or rats) are forced to swim in a cylinder from which no escape is possible, they readily adopt a characteristic immobile posture and make no further attempts to escape except for small movements needed to keep floating. The immobility is considered by some to reflect a “depressive mood” (Porsolt et al., Nature 266: 730-732, 1977) in which animals cease to struggle to escape the aversive situation. The immobility induced by the procedure is influenced by a wide variety of antidepressants (Porsolt et al., in Psychopharmacology, Olivier, Mos, and Slangen (eds) Birkhauser Verlag, Basel, pp. 137-159, 1991) and has a good predictive validity in that it detects antidepressants with different mechanisms of action (TCAs, SSRIs, MAOIs, and other atypical ones). The test is sensitive to muscle-relaxant (benzodiazepines) and sedative (neuroleptics) effects, leading to enhanced immobility (Porsolt et al., supra).
In a typical experiment, animals are placed singly into a cylinder (e.g. 46×30 cm) containing fresh water at about 20° C. for 6 minutes. The activity (or immobility) of the animal is measured by an observer minute by minute. In more detail, the animals were preconditioned in a pretest session, where the rats were individually forced to swim inside a vertical plexiglass cylinder containing water maintained at 19-20° C. After 15 minutes in the water, they were allowed to dry for […] in a heated enclosure. Twenty-four hours later, the compounds were administered either intraperitoneally or orally to the animals. One hour after administration of the test compound, animals were put back into the cylinder containing water. The total duration of immobility was measured during the last 4 minutes of a 6 minute test.
The results are expressed as the percentage of variation of the total duration of immobility calculated from the mean value of the vehicle-treated group (% variation=[(immobility duration of vehicle−immobility duration of test compound)/(immobility duration of vehicle)]×100%).
In order to measure the in vivo efficacy of inhibiting DAT in rats using an inhibitor of the instant invention, one test inhibitor ((1), (3), or (4)) was injected i.p. as racemic mixtures of diastereomers into the animals, at various-doses (e.g. 7.5 and […]). Sibutramine (2.0 and 2.5 mg/kg), Bupropion (7.5 and 10 mg/kg), and Imipramine (30 mg/kg) were similarly administered as controls. […] Asterisks indicate highly statistical significant results.
A fourth inhibitor, (6) was administered p.o. as a racemic mixture of diastereomers at either 35 or 75 mg/kg. Sibutramine (5.0 and 3.75 mg/kg), Bupropion (30 and 40 mg/kg), and Imipramine (100 mg/kg) were similarly administered as controls.
Similarly, (1) was also administered p.o. as a racemic mixture of enriched (95:5) diastereomer at either 35 or 75 mg/kg. […]

[2] = tested on: rat; assay: acute single-dose toxicology in rat; type: in vivo; details: rat (n = 5), i.v., observed 72 hours
Procedure: An in vivo evaluation was carried out to determine the maximum tolerated dose of numerous test compounds in rat. The compounds were administered i.v., and the animals were then observed for 72 hours.
Briefly, experimental rats, in groups of 5 animals, were administered with various doses of respective inhibitors (e.g. 30, 90, 120, and 200 mg/kg), and the observed toxicological effects were recorded.

[3] = molecular target: T1, DAT (h) (Homo sapiens, UniProt Q01959); assay: cell-based; type: cell-based
T1 construct: expressed in transfected cells
T1 sequence (Q01959 whole entry): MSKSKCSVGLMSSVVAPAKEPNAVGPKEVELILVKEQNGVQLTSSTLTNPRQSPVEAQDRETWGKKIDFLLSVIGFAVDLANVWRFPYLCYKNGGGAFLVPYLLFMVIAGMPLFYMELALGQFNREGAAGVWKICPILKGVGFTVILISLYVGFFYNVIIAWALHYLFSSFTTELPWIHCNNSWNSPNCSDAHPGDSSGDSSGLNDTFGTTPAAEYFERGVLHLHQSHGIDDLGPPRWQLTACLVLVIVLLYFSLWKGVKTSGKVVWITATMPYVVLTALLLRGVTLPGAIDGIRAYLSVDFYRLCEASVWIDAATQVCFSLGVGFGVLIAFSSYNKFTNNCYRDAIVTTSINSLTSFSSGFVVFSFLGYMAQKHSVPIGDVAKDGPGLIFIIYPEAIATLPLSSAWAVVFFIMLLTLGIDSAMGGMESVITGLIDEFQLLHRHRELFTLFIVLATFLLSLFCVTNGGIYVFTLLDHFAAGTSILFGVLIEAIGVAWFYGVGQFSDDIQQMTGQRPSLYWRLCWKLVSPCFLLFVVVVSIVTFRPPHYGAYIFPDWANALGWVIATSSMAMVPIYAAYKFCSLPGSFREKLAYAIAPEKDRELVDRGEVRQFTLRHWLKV
Procedure: (§1) Functional activity of the compounds was determined in vitro in cellular assays using recombinant human cell lines.

[4] = molecular target: DAT (r) (Rattus norvegicus, UniProt P23977); assay: in vitro functional uptake, rat DAT; type: cell-based; details: rat; unit inferred; read-out: DAT (r) in vitro functional uptake
Sequence of DAT (r) (P23977 whole entry): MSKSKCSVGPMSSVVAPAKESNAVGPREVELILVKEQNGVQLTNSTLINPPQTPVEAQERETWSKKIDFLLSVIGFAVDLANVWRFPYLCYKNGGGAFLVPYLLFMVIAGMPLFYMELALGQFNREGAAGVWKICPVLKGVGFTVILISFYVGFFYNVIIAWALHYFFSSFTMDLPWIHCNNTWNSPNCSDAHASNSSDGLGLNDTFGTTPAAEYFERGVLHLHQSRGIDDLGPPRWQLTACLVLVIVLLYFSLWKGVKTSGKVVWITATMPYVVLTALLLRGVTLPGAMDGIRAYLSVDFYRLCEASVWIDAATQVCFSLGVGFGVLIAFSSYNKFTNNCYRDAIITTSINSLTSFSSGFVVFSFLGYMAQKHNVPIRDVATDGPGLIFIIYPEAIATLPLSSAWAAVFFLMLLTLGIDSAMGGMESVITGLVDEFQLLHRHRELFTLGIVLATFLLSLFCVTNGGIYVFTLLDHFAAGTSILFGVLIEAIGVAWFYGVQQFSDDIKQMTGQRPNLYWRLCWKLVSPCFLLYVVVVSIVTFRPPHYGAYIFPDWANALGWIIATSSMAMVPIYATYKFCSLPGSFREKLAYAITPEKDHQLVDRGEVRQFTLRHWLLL

[5] = molecular target: T2, DAT (SLC6A3) (Homo sapiens, UniProt Q01959); assay: in vitro inhibition profile, IC50 of DAT (uptake assay); type: cell-based
T2 construct: expressed in transfected cells
T2 sequence (Q01959 whole entry): as the sequence (Q01959 whole entry) above
Procedure: Before the assay, cells expressing DAT are washed once with KRH and equilibrated for 5 min. The cells may be assayed in 24-well plates and incubated for 2-5 min. with tritiated amines. Nontransported inhibitors were preincubated for 5 min, and substrates were applied together with the tritiated substrate.
Experiments to determine the ionic requirements for DAT-mediated uptake are done in KRH buffer, substituting LiCl or choline Cl for NaCl (sodium-dependence) or substituting D-gluconates for NaCl and KCl, and Ca(NO3)2 for CaCl2 (chloride dependence). Cells are washed twice with sodium- or chloride-free KRH before the assay (each wash step at least 5 min). In all transport assays, incubation periods and substrate concentrations are chosen such that uptake obeyed first-order rate kinetics.
Vmax values for amine uptake in stable transfected DAT-cells are determined in parallel assays for at least two amines per experiment and expressed as relative values.

[6] = molecular target: NET (norepinephrine transporter or SLC6A2) (Homo sapiens, UniProt P23975); assay: cell-based
Sequence of NET (norepinephrine transporter or SLC6A2) (P23975 whole entry): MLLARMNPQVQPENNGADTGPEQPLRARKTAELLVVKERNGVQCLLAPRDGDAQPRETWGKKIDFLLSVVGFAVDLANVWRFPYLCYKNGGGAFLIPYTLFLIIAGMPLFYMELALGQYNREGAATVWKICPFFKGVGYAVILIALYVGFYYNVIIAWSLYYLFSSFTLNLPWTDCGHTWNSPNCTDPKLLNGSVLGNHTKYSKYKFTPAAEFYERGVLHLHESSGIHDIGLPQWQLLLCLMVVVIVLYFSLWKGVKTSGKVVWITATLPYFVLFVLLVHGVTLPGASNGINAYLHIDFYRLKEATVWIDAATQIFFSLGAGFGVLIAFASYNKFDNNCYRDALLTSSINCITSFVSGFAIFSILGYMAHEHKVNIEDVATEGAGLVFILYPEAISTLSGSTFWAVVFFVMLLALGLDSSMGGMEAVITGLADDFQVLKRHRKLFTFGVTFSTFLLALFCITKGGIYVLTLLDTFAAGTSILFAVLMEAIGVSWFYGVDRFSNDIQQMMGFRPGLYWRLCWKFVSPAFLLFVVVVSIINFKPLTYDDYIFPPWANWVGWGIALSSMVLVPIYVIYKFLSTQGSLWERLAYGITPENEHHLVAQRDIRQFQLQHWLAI

[7] = molecular target: 5-HT (Homo sapiens, UniProt P31645); assay: cell-based
Sequence of 5-HT (P31645 whole entry): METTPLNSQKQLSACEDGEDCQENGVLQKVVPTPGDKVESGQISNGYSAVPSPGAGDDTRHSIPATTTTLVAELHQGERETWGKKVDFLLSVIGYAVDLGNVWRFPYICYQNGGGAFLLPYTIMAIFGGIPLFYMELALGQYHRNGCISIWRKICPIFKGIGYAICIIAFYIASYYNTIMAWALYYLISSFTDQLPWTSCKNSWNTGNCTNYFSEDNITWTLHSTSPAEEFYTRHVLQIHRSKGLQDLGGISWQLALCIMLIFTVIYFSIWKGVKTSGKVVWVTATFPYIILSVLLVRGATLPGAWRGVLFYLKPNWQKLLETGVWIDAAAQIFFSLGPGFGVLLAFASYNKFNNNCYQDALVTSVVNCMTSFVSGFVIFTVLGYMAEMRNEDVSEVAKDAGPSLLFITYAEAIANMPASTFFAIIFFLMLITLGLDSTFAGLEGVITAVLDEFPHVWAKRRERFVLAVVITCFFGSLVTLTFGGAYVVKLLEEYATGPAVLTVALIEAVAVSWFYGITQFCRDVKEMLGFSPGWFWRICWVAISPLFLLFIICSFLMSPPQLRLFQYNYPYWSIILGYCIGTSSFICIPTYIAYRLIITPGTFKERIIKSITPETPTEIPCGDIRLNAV

[8] = molecular target: T3, NET (h) (Homo sapiens, UniProt P23975); assay: cell-based; type: cell-based; details: human; nM; read-out: NET (h) in vitro functional uptake
T3 construct: expressed in transfected cells; host or cells: MDCK
T3 sequence (P23975 whole entry): as the sequence (P23975 whole entry) above
Procedure: as §1

[9] = molecular target: T4, 5-HT (h) (Homo sapiens, UniProt P31645); assay: cell-based; type: cell-based; details: human; nM; read-out: 5-HT (h) in vitro functional uptake
T4 construct: expressed in transfected cells; host or cells: HEK-293
T4 sequence (P31645 whole entry): as the sequence (P31645 whole entry) above
Procedure: as §1

[10] = tested on: Sprague-Dawley rats; assay: 7 day multidose oral dosing toxicology study; type: in vivo, rat; details: for 7 day multidose oral toxicology, symptoms: Sprague-Dawley rats n = 6 (3M/3F)
Text: The representative results are listed below in Table VI.

[11] = human, nM, read-out: DAT (h) in vitro functional uptake

Row | SMILES | EC50 [3, 11] [nM] | EC50 [8] [nM] | EC50 [9] [nM] | further results
1 | CC1CCC(COc2ccc(C(F)(F)F)cc2)CN1CC(O)C1(c2ccc(Cl)cc2)CCC1 (stereo not shown) [(4)] | – | – | – | forced swim test efficacy versus commercial drugs (FIG. 1) ([1]; i.p., racemic mixtures of diastereomers): performed equally well, if not better, than the commercial drugs Sibutramine, Bupropion, and Imipramine; acute single dose toxicology, observed symptoms ([2]; 120 mg/kg): decreased grip strength and limb tone and convulsions; acute single dose toxicology, observed symptoms ([2]; 200 mg/kg): Convulsions
2 | CC1C(COc2ccc(C(F)(F)F)cc2)CCCN1CC1(c2ccc(Cl)cc2)CCC1 (stereo not shown) [(5)] | – | – | – | EC50 [3]: 5 nM; selectivity for DAT over 5-HT [3]: 1000 fold; selectivity for DAT over NET [3]: 1000 fold; EC50 [4]: 300 nM; IC50 [5]: 5 nM; fold selectivity of DAT against related receptors (NET, 5-HT) ([5]; from Table II IC50): 174-2,000 fold; IC50 [6]: 870 nM; IC50 [7]: 10000 nM
3 | CC1C(COc2ccc(C(F)(F)F)cc2)CCCN1CC(O)C1(c2ccc(Cl)cc2)CCC1 (stereo not shown) [(6)] | – | – | – | forced swim test efficacy versus commercial drugs (FIG. 2, FIG. 3) ([1]; p.o., 35 or 75 mg/kg): performed equally well, if not better, than the commercial drugs Sibutramine, Bupropion, and Imipramine; acute single dose toxicology, observed symptoms ([2]; 200 mg/kg): no observed symptoms
4 | C[C@@H]1[C@H](COc2ccc(C(F)(F)F)cc2)CCCN1CC(O)C1(c2ccc(Cl)cc2)CCC1 (stereo partly shown) [(6′)] | 3 | 3 | – | –
5 | C[C@H]1CC[C@@H](COc2ccc(C(F)(F)F)cc2)CN1CC1(c2ccc(Cl)cc2)CCC1 [(13), (2S,5R)-1-{[1-(4-Chlorophenyl)cyclobutyl]methyl}-2-methyl-5-{[4-(trifluoromethyl)phenoxy]methyl}piperidine] | < 1 | 100 | > 2000 | –
6 | C[C@H]1CCN(CC2(c3ccc(Cl)cc3)CCC2)C[C@@H]1COc1ccc(C(F)(F)F)cc1 [(14), (3R,4S)-1-{[1-(4-Chlorophenyl)cyclobutyl]methyl}-4-methyl-3-{[4-(trifluoromethyl)phenoxy]methyl}piperidine] | < 1 | 150 | > 2000 | –
7 | C[C@@H]1CCN(CC2(c3ccc(Cl)cc3)CCC2)C[C@H]1COc1ccc(C(F)(F)F)cc1 [(15), (3S,4R)-1-{[1-(4-Chlorophenyl)cyclobutyl]methyl}-4-methyl-3-{[4-(trifluoromethyl)phenoxy]methyl}piperidine] | < 1 | 350 | > 2000 | –
8 | C[C@H]1CCN(CC2(c3ccc(Cl)cc3)CCC2)C[C@H]1COc1ccc(C(F)(F)F)cc1 [(16), (3S,4S)-1-{[1-(4-Chlorophenyl)cyclobutyl]methyl}-4-methyl-3-{[4-(trifluoromethyl)phenoxy]methyl}piperidine] | < 1 | 100 | > 2000 | –
9 | C[C@H]1CC[C@@H](COc2ccc(C(F)(F)F)cc2)CN1C[C@@H](O)C1(c2ccc(Cl)cc2)CCC1 [(17), (S)-1-[1-(4-Chlorophenyl)cyclobutyl]-2-{(2S,5R)-2-methyl-5-[4-(trifluoromethyl)phenoxy]methyl}piperidin-1-ylethanol] | 1 | 5 | > 2000 | –
10 | C[C@H]1CC[C@@H](COc2ccc(C(F)(F)F)cc2)CN1C[C@H](O)C1(c2ccc(Cl)cc2)CCC1 [(18), (R)-1-[1-(4-Chlorophenyl)cyclobutyl]-2-{(2S,5R)-2-methyl-5-[4-(trifluoromethyl)phenoxy]methyl}piperidin-1-ylethanol] | 1 | 2 | > 2000 | –
11 | C[C@@H]1CC[C@H](COc2ccc(C(F)(F)F)cc2)CN1C[C@H](O)C1(c2ccc(Cl)cc2)CCC1 [(19), (R)-1-[1-(4-Chlorophenyl)cyclobutyl]-2-{(2R,5S)-2-methyl-5-[4-(trifluoromethyl)phenoxy]methyl}piperidin-1-ylethanol] | 1 | 9 | > 2000 | –
12 | C[C@@H]1CC[C@H](COc2ccc(C(F)(F)F)cc2)CN1C[C@@H](O)C1(c2ccc(Cl)cc2)CCC1 [(20), (S)-1-[1-(4-Chlorophenyl)cyclobutyl]-2-{(2R,5S)-2-methyl-5-[4-(trifluoromethyl)phenoxy]methyl}piperidin-1-ylethanol] | 1 | 2 | 20 | –
13 | C[C@@H]1CC[C@@H](COc2ccc(C(F)(F)F)cc2)CN1C[C@@H](O)C1(c2ccc(Cl)cc2)CCC1 [(21), (S)-1-[1-(4-Chlorophenyl)cyclobutyl]-2-{(2R,5R)-2-methyl-5-[4-(trifluoromethyl)phenoxy]methyl}-piperidin-1-ylethanol] | 1 | 5 | 10 | –
14 | CC(C)C[C@@H](N)C1(c2ccc(Cl)cc2)CCC1 [R-DDMS, reference compound] | 100 | 200 | 1500 | –
15 | CN[C@H](CC(C)C)C1(c2ccc(Cl)cc2)CCC1 [R-DMS, reference compound] | 30 | 300 | 1500 | –
16 | CC(C)CC(N(C)C)C1(c2ccc(Cl)cc2)CCC1 (stereo not shown) [Sibutramine] | – | – | – | 7 day multidose oral toxicology, symptoms ([10]; oral 100 mg/kg/day, 100 mg/kg/day): decreased grip strength, depression; 7 day multidose oral toxicology, symptoms ([10]; oral 400 mg/kg/day, 400 mg/kg/day): convulsions; also recorded: Convulsions;; 7 day multidose oral toxicology, deaths ([10]; n = 6, oral 200 mg/kg/day): 2 deaths; 7 day multidose oral toxicology, self-mutilation (number of animals) ([10]; n = 6, oral 200 mg/kg/day): 6 self-mutilation
